ChEMBL document CHEMBL1201862, “PubChem BioAssay data set” (2004)
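1) Cells in 96-well plates. 2) Compound, 48 h, 5 concentrations. 3) Linear interpolation between surrounding doses. 4) Unreached endpoint = highest concentration. GI50 marks 50% less growth.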 The source made the active and inactive calls. No stated cut-off is given here; in the data, active = GI50 up to about 1.1 µM and inactive = higher.

Experiments:
Test in all cases: growth of human tumour cells (NCI), 48 h
UACC-62 = tested on: UACC-62
OVCAR-5 = tested on: OVCAR-5
HOP-62 = tested on: HOP-62
T47D = tested on: T47D
UACC-257 = tested on: UACC-257
SK-OV-3 = tested on: SK-OV-3
A549 = tested on: A549
SR = tested on: SR
KM12 = tested on: KM12
DU-145 = tested on: DU-145
ACHN = tested on: ACHN
SK-MEL-2 = tested on: SK-MEL-2
SN12C = tested on: SN12C
CCRF-CEM = tested on: CCRF-CEM
HOP-92 = tested on: HOP-92
MCF7 = tested on: MCF7
NCI-H522 = tested on: NCI-H522
RXF 393 = tested on: RXF 393
SF-539 = tested on: SF-539
Malme-3M = tested on: Malme-3M
U-251 = tested on: U-251
MOLT-4 = tested on: MOLT-4
M14 = tested on: M14
SNB-19 = tested on: SNB-19
OVCAR-4 = tested on: OVCAR-4
RPMI-8226 = tested on: RPMI-8226
UO-31 = tested on: UO-31
SF-268 = tested on: SF-268
OVCAR-8 = tested on: OVCAR-8
HCT-116 = tested on: HCT-116
NCI-H226 = tested on: NCI-H226
EKVX = tested on: EKVX
MDA-MB-231 = tested on: MDA-MB-231
CAKI-1 = tested on: CAKI-1
OVCAR-3 = tested on: OVCAR-3
BT-549 = tested on: BT-549
A498 = tested on: A498
Hs-578T = tested on: Hs-578T
COLO 205 = tested on: COLO 205
SK-MEL-28 = tested on: SK-MEL-28
NCI/ADR-RES = tested on: NCI/ADR-RES
SNB-75 = tested on: SNB-75
SW-620 = tested on: SW-620
HT-29 = tested on: HT-29
NCI-H23 = tested on: NCI-H23
LOX IMVI = tested on: LOX IMVI
HL-60 = tested on: HL-60
NCI-H460 = tested on: NCI-H460
SF-295 = tested on: SF-295
MDA-N = tested on: MDA-N
MDA-MB-435 = tested on: MDA-MB-435
IGROV-1 = tested on: IGROV-1
K562 = tested on: K562
PC-3 = tested on: PC-3
HCT-15 = tested on: HCT-15
786-0 = tested on: 786-0

**Q.** What does the source list for Oc1cccc(-c2nc3ccccc3s2)c1?
**A.** GI50 (UACC-62): 34.8 µM (inactive); GI50 (OVCAR-5): 14.8 µM (inactive); GI50 (HOP-62): 22.5 µM (inactive); GI50 (T47D): 10.2 µM (inactive); GI50 (UACC-257): 26.4 µM (inactive); GI50 (SK-OV-3): 27.9 µM (inactive); GI50 (A549): 26.2 µM (inactive); GI50 (SR): 29.2 µM (inactive); GI50 (KM12): 14.7 µM (inactive); GI50 (DU-145): 38.7 µM (inactive); GI50 (ACHN): 41 µM (inactive); GI50 (SK-MEL-2): 28.4 µM (inactive); GI50 (SN12C): 33.8 µM (inactive); GI50 (CCRF-CEM): 57 µM (inactive); GI50 (HOP-92): 25.5 µM (inactive); GI50 (MCF7): 16.4 µM (inactive); GI50 (NCI-H522): 17.6 µM (inactive); GI50 (RXF 393): 32.1 µM (inactive); GI50 (SF-539): 28.7 µM (inactive); GI50 (Malme-3M): 2.99 µM (inactive); GI50 (U-251): 39.5 µM (inactive); GI50 (MOLT-4): 24.2 µM (inactive); GI50 (M14): 23.2 µM (inactive); GI50 (SNB-19): 67.3 µM (inactive); GI50 (OVCAR-4): 19.1 µM (inactive); GI50 (RPMI-8226): 39.4 µM (inactive); GI50 (UO-31): 26.1 µM (inactive); GI50 (SF-268): 19.8 µM (inactive); GI50 (OVCAR-8): 27.2 µM (inactive); GI50 (HCT-116): 33 µM (inactive); GI50 (NCI-H226): 10.8 µM (inactive); GI50 (EKVX): 5.69 µM (inactive); GI50 (MDA-MB-231): 22.1 µM (inactive); GI50 (CAKI-1): 23.9 µM (inactive); GI50 (OVCAR-3): 21.6 µM (inactive); GI50 (BT-549): 33 µM (inactive); GI50 (A498): 52.5 µM (inactive); GI50 (Hs-578T): 15.5 µM (inactive); GI50 (COLO 205): 35.9 µM (inactive); GI50 (SK-MEL-28): 74.6 µM (inactive); GI50 (NCI/ADR-RES): 21.9 µM (inactive); GI50 (SNB-75): 19 µM (inactive); GI50 (SW-620): 57.9 µM (inactive); GI50 (HT-29): 18.8 µM (inactive); GI50 (NCI-H23): 15.8 µM (inactive); GI50 (LOX IMVI): 26.5 µM (inactive); GI50 (HL-60): 47.8 µM (inactive); GI50 (NCI-H460): 34 µM (inactive); GI50 (SF-295): 26.7 µM (inactive); GI50 (MDA-N): 27.8 µM (inactive); GI50 (MDA-MB-435): 30.7 µM (inactive); GI50 (IGROV-1): 5.02 µM (inactive); GI50 (K562): 55.6 µM (inactive); GI50 (PC-3): 23.2 µM (inactive); GI50 (HCT-15): 25.5 µM; GI50 (786-0): 71.6 µM (inactive)
